Measurements taken from patent publication US4620871A (priority 1980, dated 1986).

Assays:
Pea = experiment: Stimulation of nutrient uptake, labelled phosphate, pea (Example 24); settings: for labelled phosphate in nucleic acid fraction: 200 ppm, control 23.3
Experimental: (§1) The compositions according to the invention were diluted with distilled water to an active agent concentration of 200 ppm, and leaf segments of wheat, maize and pea, weighing 200 mg each, were treated with the solutions. Thereafter the treated green leaf segments were treated for 0.5 hours with a solution of labelled phosphate ions (radioactivity: 30 μCi/50 ml). After this exposition period the treated leaf segments and the untreated controls were processed in a manner known per se to isolate the nucleic acid fractions, and the isolated nucleic acid fractions were dissolved in 6 n ammonium hydroxide solution. Stock solutions were prepared from the resulting solutions, and the amount of labelled phosphate ions present in the stock solutions were measured by liquid scintillation.

leaves of Pinto bean = experiment: Stimulation of photolytic activity, HTO, Pinto bean (Example 23); settings: 18 hours, zeatin 20, kinetin/benzyladenine 30, others 200 ppm; for Photolytic activity: control 7.64
Experimental: The stimulating effects of an endogeneous cytokinin (zeatin), synthetic cytokinins (kinetin, benzyladenine) and the cytokinin-like regulators according to the invention exerted on the photolytic activity connected to the decomposition of HTO were examined on leaves of Pinto bean. The leaf discs were floated for 18 hours on solutions of the substances under examination, and then exposed to a radioactivity of 200 μCi/100 ml for one hour to effect photolysis of HTO.

sugar beet = experiment: Crop yield and sugar content of sugar beet (Example 32); assay type: in vivo; settings: for Crop yield: 1 kg/ha seed + 2 x 2 kg/ha, control 541; for Sugar content: after harvesting, control 16.0; for Sugar yield: control 87.56; for Sugar yield, increase: in vivo
Experimental: Glomeruli of sugar beet were treated with the compositions according to the invention (a dose corresponding to 1 kg/ha was applied), and the glomeruli were sown into large parcels. The plants emerged were sprayed twice with the compositions according to the invention, applying a dose of 2 kg/ha, each.
The sugar contents of the plants grown on the treated and control parcels were examined in August.
The crop yield and the sugar content were also determined after harvesting.

leaves of Pinto beans = experiment: Stimulation of carbon dioxide fixation, Pinto beans (Example 21); settings: zeatin 20, kinetin/benzyladenine 30, others 200 ppm; for Radioactivity A: A = in the light, control 2.14; for Radioactivity B: B = in the dark, control 0.18; for Radioactivity C: C = photosynthetic, control 2.32
Experimental: The tests were performed on leaves of Pinto beans. The leaf segments were treated with an endogeneous cytokinin (zeatin), synthetic cytokinins (kinetin, benzyladenine) or with the compositions according to the invention, respectively, by floating the leaf segments on the solution of the test substance for 18 hours, thereafter the leaf segments were exposed to labelled carbon dioxide (activity: 100 μCi/5000 ml of ^14 CO2) for 0.5 hours.

Libelulla wheat variety = experiment: Grain yield of Libelulla wheat (Example 31); assay type: in vivo; settings: for Weight of grains, increase: in vivo; for Weight of grains collected from 100 ears: seed 2 kg/ha + soil 2 kg/ha, control 215.79
Experimental: Two wheat varieties, Libelulla and Mexican 226 K, were utilized in the tests performed under large-parcel field conditions. The sowing seeds were coated with the compositions of the invention according to the wet powder seed dressing technique; a dosis of 2 kg/ha was applied.
The soil was also treated with the compositions according to the invention directly before sowing. A dose of 2 kg/ha was applied.
The grain yields of the wheat varieties, harvested from the treated and control parcels, were measured, and the total nitrogen content and protein nitrogen content of the grains were determined.

Pinto beans = experiment: Preservation of chlorophyll in Pinto beans (Example 17); assay type: in vivo; settings: zeatin 20 ppm, kinetin/benzyladenine 30 ppm, others 200 ppm; for Extinction: 665 mμ, 200 mg fresh weight, 2 weeks
Experimental: Endogeneous and synthetic cytokinins were applied as comparative substances. Solutions with varying concentrations, but always more dilute than 10^-4 moles, were applied in the tests.
The tests were performed on Pinto beans. The plants were treated with an endogenous cytokinin (zeatine), synthetic cytokinins (kinetin, benzyladenine) or cytokinin-like compounds, respectively, and the chlorophyll content of the leaves was determined 2 weeks after the treatment by measuring the extinction of the extract of the leaves at 665 mμ.

Alfalfa = experiment: Total and protein nitrogen content of alfalfa, field (Example 26); assay type: in vivo; settings: for Protein nitrogen content: control 2.25; for Total nitrogen content: control 3.36
Experimental: Alfalfa was treated with the compositions according to the invention under large-parcel field conditions. The tests were performed in fourfold replications on parcels 1 hectare in area, each. The oily compositions according to the invention were diluted with water and then sprayed onto the test parcels either once or twice.
The parcels were sprayed first when the soil was already covered with sprouting alfalfa shoots. The second treatment, if any, was performed two weeks later. The dose applied in all of the treatments was 2 kg/ha.
The total nitrogen content and the protein nitrogen content of alfalfa, harvested from the untreated, once-treated and twice-treated parcels, was measured.

Maize = experiment: Stimulation of nutrient uptake, labelled phosphate, maize (Example 24); settings: for labelled phosphate in nucleic acid fraction: 200 ppm, control 31.2
Experimental: as §1

soybean leaf segments = experiment: Stimulation of the protein level of soybean, glycine-14C incorporation (Example 18); settings: 24 hours; for Radioactivity: 200 ppm, control 11.9
Experimental: The active agent to be tested was dissolved in distilled water to form a 200 ppm solution, and soybean leaf segments, weighing 200 mg, were floated on the surface of the solution for 24 hours. In the control test leaf segments, weighing 200 mg, were floated on the surface of distilled water.
The leaf segments were washed with distilled water, and then treated for 3 hours with 20 ml of a solution containing labelled amino acid (glycine-^14 C; activity: 2 μCi). After this exposition period the leaf segments were washed with an aboundant amount of water, and the protein content of the leaf segments was isolated in a manner known per se. Stock solution was prepared from the isolated protein, and the specific radioactivity of the solution was determined by liquid scintillation.

Soybean = experiment: Grain yield of soybean (Example 30); assay type: in vivo; settings: 3 x 2 kg/ha; for Grain yield: control 29.53
Experimental: Soybean cultures were sprayed three times with the compositions according to the invention. The active agents were applied in a dosis of 2 kg/ha, in all of the treatments. The stand was sprayed first at the beginning of flowering, then at the flowering of the apical cluster, and finally two weeks after the second treatment.
The grain yield of soybean, harvested from the treated and control parcels, was measured.

[1] = test system: Mixed soybean/sunflower cultures; experiment: Nitrogen content of mixed soybean/sunflower culture (Example 27); assay type: in vivo; settings: 3 x 2 kg/ha; for Protein nitrogen content: control 2.27; for Total nitrogen content: control 2.56; for Protein nitrogen content in % of the total nitrogen content: control 65.2
Experimental: Mixed soybean/sunflower cultures, to be harvested when green, were treated with the compositions according to the invention under large-parcel field conditions. The tests were performed in fourfold replications on parcels 1 hectare in area, each. The compositions were diluted with water and sprayed onto the parcels three times, in doses of 2 kg/ha, each. The first treatment was performed when the soil was already completely covered by green plants, the second treatment was performed two weeks later, and then the third after two additional weeks. The green plants were harvested from the treated and control parcels, and the total nitrogen content and protein nitrogen content were determined.

SMILES | labelled phosphate in nucleic acid fraction (Pea) | Stimulation (leaves of Pinto bean) [%] | Photolytic activity (leaves of Pinto bean) | Crop yield (sugar beet) [q/ha] | Sugar content (sugar beet) [%] | Sugar yield (sugar beet) [q/ha] | Sugar yield, increase (sugar beet) [%] | Radioactivity A (leaves of Pinto beans) [dpm/200 mg fresh weight] | Radioactivity B (leaves of Pinto beans) [dpm/200 mg fresh weight] | Radioactivity C (leaves of Pinto beans) [dpm/200 mg fresh weight] | Stimulation (leaves of Pinto beans) [%] | Weight of grains, increase (Libelulla wheat variety) [%] | Weight of grains collected from 100 ears (Libelulla wheat variety) [g] | Extinction (Pinto beans) | Promotion (Pinto beans) [%] | Protein nitrogen content, stimulation (Alfalfa; 1 treatment, 2 kg/ha) [%] | Total nitrogen content, stimulation (Alfalfa; 1 treatment, 2 kg/ha) [%] | Protein nitrogen content (Alfalfa; 1 treatment, 2 kg/ha) | Total nitrogen content (Alfalfa; 1 treatment, 2 kg/ha) | labelled phosphate in nucleic acid fraction (Maize) | further results
N=C(N)N.N=C(N)N.Oc1nnc(O)c2ccccc12 [1,4-dihydroxyphthalazine diguanidine salt] | 38.4 1000 cpm/g | 79 | 13.72 dpm/mg of glucose | 608 | 16.45 | 100.01 | 14 | 3.38 | 0.31 | 3.69 | 59.3 | 7 | 232.35 | 0.985 | 46.8 | 54 | 24 | 3.48 % of dry substance | 4.17 % of dry substance | 47.0 1000 cpm/g | activation at 200 ppm (Pea): 51.7%; activation at 200 ppm (Maize; Zea mays): 50.6%; Radioactivity (soybean leaf segments): 15.5 mu Ci/100 mg; activation at 200 ppm (soybean leaf segments; Glycine max): 30.2%; Grain yield, increase (Soybean): 39%; Grain yield (Soybean): 41.22 q/ha; Protein nitrogen content, stimulation [1]: 39.6%; Total nitrogen content, stimulation [1]: 34.7%; Protein nitrogen content [1]: 3.17 % of dry weight; Total nitrogen content [1]: 3.45 % of dry weight; Protein nitrogen content in % of the total nitrogen content [1]: 94.8%
CCC[n+]1c[nH]c2ccccc21.[Br-] [N--(n-Propyl)-benzimidazolium bromide, N-(n-propyl)-benzimidazolium bromide] | 32.7 1000 cpm/g | 84 | 14.08 dpm/mg of glucose | 877 | 17.05 | 149.49 | 70 | 3.92 | 0.34 | 4.26 | 84.0 | 65 | 357.73 | 1.081 | 61.2 | 8 | 4 | 2.48 % of dry substance | 3.51 % of dry substance | 39.3 1000 cpm/g | Protein nitrogen content, stimulation (Alfalfa; 2 treatments, 2 kg/ha each): 22%; Total nitrogen content, stimulation (Alfalfa; 2 treatments, 2 kg/ha each): 13%; Protein nitrogen content (Alfalfa; 2 treatments, 2 kg/ha each): 2.75 % of dry substance; Total nitrogen content (Alfalfa; 2 treatments, 2 kg/ha each): 3.91 % of dry substance; Radioactivity (soybean leaf segments): 13.7 mu Ci/100 mg; Grain yield, increase (Soybean): 30%; Grain yield (Soybean): 38.67 q/ha; Protein nitrogen content, stimulation [1]: 21.1%; Total nitrogen content, stimulation [1]: 9.7%; Protein nitrogen content [1]: 2.75 % of dry weight; Total nitrogen content [1]: 2.80 % of dry weight; Protein nitrogen content in % of the total nitrogen content [1]: 98.9%
